Drawing on patent publication US7947679B2 (priority 2002, dated 2011), this text covers control of disease and melting point for four compounds.

For one data set, the system named is Plasmopara viticola. Conditions: in vivo.
In the next data set the test system is Botrytis cinerea. Conditions: in vivo.
For a further data set, the system named is Phytophthora infestans. Type of data set: in vivo. Conditions: 200 ppm, tomato leaf disks, preventive, assessed four days after inoculation.

Take `CC(C)Nc1c(-c2c(F)cc(F)cc2F)c(Cl)nc2ncc(Br)cc12` [3 (111), [6-bromo-2-chloro-3-(2,4,6-trifluorophenyl)-[1,8]naphthyridin-4-yl]-isopropylamine]: the control of disease entry in the data set with Plasmopara viticola was “greater than 60%”. Regarding `CC(C)Nc1c(-c2c(F)cc(F)cc2F)c(Cl)nc2ncccc12` [3 (1), [2-chloro-3-(2,4,6-trifluorophenyl)-[1,8]naphthyridin-4-yl]-isopropylamine], the melting point is 193 °C. Besides, the control of disease entry in the data set with Botrytis cinerea was “greater than 60%”. On to `Fc1cc(F)c(-c2c(Cl)nc3ncccc3c2N2CCOCC2)c(F)c1` [20 (1), 2-chloro-4-morpholin-4-yl-3-(2,4,6-trifluorophenyl)-[1,8]naphthyridine], for which, in the data set on Phytophthora infestans, the control of disease result is “greater than 60%”. `CC(C)Nc1nc2ncccc2c(Cl)c1-c1c(F)cc(F)cc1F` had a melting point of 202 °C.
